Measured values published in ChEMBL document CHEMBL1135352, “8-Anilinoimidazo[4,5-g]quinoline-7-carbonitriles as Src kinase inhibitors” (Bioorg Med Chem Lett, 2002).

Key:
[1] = target: Epidermal growth factor receptor (Homo sapiens, UniProt P00533); assay: Inhibition of Epidermal growth factor receptor kinase
[2] = target: Proto-oncogene tyrosine-protein kinase Src (Homo sapiens, UniProt P12931); assay: Inhibition of Src protein tyrosine kinase activity
[3] = target: Receptor tyrosine-protein kinase erbB-2 (Homo sapiens, UniProt P04626); assay: Inhibition of ERBB2 receptor kinase
[4] = Inhibition of Dual specificity mitogen-activated protein kinase kinase MEK
[5] = target: Proto-oncogene tyrosine-protein kinase Src (Rattus norvegicus, UniProt Q9WUD9); assay: Inhibition of src kinase activity in Src transformed rat fibroblasts; type: functional
Chain of Proto-oncogene tyrosine-protein kinase Src (Rattus norvegicus, UniProt Q9WUD9) (Q9WUD9 2-536 limits assumed): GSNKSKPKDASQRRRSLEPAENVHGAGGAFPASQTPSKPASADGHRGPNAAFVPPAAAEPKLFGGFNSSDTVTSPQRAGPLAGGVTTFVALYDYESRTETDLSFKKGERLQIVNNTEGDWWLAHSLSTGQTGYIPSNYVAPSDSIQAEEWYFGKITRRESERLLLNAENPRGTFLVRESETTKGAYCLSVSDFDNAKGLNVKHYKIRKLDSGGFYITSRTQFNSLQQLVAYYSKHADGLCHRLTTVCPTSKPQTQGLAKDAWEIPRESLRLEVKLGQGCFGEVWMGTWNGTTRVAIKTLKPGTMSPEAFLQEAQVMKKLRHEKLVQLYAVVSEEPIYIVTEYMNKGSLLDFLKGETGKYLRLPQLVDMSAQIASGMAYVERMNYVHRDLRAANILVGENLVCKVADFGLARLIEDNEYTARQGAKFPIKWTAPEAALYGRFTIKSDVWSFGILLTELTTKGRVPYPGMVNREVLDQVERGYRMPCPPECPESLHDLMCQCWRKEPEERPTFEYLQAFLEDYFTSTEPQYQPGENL

Chain of Proto-oncogene tyrosine-protein kinase Src (Homo sapiens, UniProt P12931) (P12931 2-536 limits assumed): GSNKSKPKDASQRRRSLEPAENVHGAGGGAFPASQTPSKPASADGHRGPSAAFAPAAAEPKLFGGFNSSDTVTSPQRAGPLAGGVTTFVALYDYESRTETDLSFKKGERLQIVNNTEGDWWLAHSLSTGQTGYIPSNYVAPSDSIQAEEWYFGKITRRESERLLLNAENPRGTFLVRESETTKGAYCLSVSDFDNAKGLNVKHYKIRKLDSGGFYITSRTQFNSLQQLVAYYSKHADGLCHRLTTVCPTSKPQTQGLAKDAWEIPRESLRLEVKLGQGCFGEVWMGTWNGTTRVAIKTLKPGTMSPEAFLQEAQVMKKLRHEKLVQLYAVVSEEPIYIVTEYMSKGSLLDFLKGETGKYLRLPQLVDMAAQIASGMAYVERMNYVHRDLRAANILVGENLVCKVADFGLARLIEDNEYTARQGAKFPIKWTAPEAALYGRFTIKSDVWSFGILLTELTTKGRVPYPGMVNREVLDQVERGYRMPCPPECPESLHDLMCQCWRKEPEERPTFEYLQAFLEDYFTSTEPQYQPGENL
Chain of Epidermal growth factor receptor (P00533 whole entry): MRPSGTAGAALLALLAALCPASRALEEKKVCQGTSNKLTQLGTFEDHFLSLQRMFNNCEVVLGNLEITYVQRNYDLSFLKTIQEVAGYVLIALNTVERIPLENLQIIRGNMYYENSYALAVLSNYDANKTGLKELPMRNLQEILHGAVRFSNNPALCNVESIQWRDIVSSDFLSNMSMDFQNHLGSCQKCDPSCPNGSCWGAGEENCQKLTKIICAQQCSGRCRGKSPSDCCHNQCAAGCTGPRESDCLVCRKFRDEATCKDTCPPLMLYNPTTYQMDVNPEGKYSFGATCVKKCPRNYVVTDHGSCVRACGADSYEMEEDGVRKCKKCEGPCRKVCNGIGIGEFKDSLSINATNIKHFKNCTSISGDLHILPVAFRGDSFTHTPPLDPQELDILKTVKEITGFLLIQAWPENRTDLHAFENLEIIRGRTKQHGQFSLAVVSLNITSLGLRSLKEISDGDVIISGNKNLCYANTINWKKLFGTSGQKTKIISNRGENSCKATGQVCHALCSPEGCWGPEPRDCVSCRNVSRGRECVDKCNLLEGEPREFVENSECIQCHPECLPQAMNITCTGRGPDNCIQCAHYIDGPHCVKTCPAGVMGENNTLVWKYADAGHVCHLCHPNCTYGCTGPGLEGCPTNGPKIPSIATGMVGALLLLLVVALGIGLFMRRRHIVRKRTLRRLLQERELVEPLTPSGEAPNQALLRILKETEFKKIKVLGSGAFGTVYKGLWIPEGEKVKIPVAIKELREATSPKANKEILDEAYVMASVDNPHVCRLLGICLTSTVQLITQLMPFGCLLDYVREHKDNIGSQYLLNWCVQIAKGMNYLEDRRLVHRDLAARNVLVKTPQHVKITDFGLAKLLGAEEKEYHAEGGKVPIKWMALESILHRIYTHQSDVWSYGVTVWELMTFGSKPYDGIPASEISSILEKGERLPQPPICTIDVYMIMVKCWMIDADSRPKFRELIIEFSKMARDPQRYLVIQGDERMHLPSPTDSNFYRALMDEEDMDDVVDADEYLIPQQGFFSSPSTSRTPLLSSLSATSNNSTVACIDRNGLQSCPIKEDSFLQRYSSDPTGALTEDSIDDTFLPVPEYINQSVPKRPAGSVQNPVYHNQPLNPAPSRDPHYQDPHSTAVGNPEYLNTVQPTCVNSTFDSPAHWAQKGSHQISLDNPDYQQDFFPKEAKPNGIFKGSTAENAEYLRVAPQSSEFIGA
Chain of Receptor tyrosine-protein kinase erbB-2 (P04626 whole entry): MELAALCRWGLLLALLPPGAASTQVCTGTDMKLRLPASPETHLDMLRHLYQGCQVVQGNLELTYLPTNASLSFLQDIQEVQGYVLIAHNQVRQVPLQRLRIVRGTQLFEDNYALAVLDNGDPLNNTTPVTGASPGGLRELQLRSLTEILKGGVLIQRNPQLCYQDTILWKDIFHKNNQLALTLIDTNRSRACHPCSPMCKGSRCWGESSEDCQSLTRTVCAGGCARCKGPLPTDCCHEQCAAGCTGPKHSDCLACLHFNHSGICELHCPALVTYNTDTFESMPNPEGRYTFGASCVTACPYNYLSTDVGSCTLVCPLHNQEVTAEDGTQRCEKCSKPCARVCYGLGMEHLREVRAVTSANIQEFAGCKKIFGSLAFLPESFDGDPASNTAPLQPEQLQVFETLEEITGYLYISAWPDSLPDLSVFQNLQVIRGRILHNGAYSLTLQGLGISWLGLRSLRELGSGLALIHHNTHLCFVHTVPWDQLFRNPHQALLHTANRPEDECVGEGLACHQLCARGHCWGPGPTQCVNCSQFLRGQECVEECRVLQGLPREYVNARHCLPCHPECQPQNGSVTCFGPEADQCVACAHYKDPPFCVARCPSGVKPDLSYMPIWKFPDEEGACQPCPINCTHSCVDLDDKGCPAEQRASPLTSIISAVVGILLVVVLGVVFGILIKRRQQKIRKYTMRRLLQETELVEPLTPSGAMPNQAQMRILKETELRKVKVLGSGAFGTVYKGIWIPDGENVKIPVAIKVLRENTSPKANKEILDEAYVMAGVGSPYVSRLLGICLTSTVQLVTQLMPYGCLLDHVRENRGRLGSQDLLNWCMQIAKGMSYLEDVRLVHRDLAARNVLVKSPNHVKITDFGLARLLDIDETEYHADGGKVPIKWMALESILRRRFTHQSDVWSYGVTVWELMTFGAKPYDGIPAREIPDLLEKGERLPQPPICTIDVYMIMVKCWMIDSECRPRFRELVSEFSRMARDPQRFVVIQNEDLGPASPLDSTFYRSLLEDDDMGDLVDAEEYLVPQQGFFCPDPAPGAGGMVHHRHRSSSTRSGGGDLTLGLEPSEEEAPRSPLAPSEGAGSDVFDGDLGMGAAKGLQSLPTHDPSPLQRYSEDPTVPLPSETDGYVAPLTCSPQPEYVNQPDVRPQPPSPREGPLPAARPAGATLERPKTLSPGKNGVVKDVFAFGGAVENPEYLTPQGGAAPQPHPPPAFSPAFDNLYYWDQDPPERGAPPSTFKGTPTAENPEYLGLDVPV

SMILES | IC50 [1] | IC50 [2] | IC50 [3] | IC50 [4] | IC50 [5]
COc1ccc(C)c(Nc2c(C#N)cnc3cc4c(cc23)ncn4CCN2CCOCC2)c1 | > 1 µM | 0.12 µM | > 1 µM | > 1 µM | 3.3 µM
COc1ccc(C)c(Nc2c(C#N)cnc3cc4[nH]c(NCCN5CCOCC5)nc4cc23)c1 | > 1 µM | 0.067 µM | > 1 µM | > 1 µM | > 10 µM
COc1cc(Nc2c(C#N)cnc3cc4[nH]c(CN5CCOCC5)nc4cc23)cc(OC)c1OC | > 1 µM | 0.62 µM | > 1 µM | > 1 µM | > 10 µM
COc1cc(Nc2c(C#N)cnc3cc4c(cc23)ncn4CCN2CCOCC2)cc(OC)c1OC | > 1 µM | 0.2 µM | > 1 µM | > 1 µM | > 10 µM
COc1cc(Nc2c(C#N)cnc3cc4[nH]cnc4cc23)cc(OC)c1OC | > 1 µM | 0.33 µM | > 1 µM | > 1 µM | > 10 µM
N#Cc1cnc2cc3[nH]cnc3cc2c1Nc1ccc(Cl)cc1Br | > 1 µM | 0.075 µM | > 1 µM | > 1 µM | 10.1 µM
COc1cc(Nc2c(C#N)cnc3cc4nc(NCCN5CCOCC5)[nH]c4cc23)cc(OC)c1OC | – | 0.18 µM | > 1 µM | – | > 10 µM

These reach a lower IC50 [2]. Values come first.

IC50 [1] | IC50 [2] | IC50 [3] | IC50 [4] | IC50 [5] | SMILES
> 1 µM | 0.029 µM | > 1 µM | > 1 µM | 3.9 µM | COc1cc(Nc2c(C#N)cnc3cc4c(cc23)ncn4CCN2CCOCC2)c(C)cc1Cl
> 1 µM | 0.009 µM | > 1 µM | > 1 µM | 0.67 µM | COc1cc(Nc2c(C#N)cnc3cc4c(cc23)ncn4CCN2CCOCC2)c(Br)cc1Cl
> 1 µM | 0.03 µM | > 1 µM | > 1 µM | 10.5 µM | COc1ccc(Cl)c(Nc2c(C#N)cnc3cc4[nH]cnc4cc23)c1
> 1 µM | 0.016 µM | > 1 µM | > 1 µM | 2.8 µM | COc1cc(Nc2c(C#N)cnc3cc4[nH]cnc4cc23)c(Br)cc1Cl
> 1 µM | 0.043 µM | > 1 µM | > 1 µM | 1.2 µM | COc1ccc(Cl)c(Nc2c(C#N)cnc3cc4c(cc23)ncn4CCN2CCOCC2)c1
